Like-named read-outs stand apart in the source and are kept apart here.

Assay [1] addresses T1, Human MIF (MIF tautomerase activity) (Homo sapiens, UniProt P14174).
T1 construct: made in house
T1 sequence (P14174 2-115 limits assumed): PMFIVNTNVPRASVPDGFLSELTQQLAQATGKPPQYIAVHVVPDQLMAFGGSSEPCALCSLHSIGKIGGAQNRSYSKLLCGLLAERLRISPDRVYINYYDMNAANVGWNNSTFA
In words: HPP tautomerase assay. Format: biochemical. Particulars: for IC50: read-out: HPP IC50.
Method: The HPP assay used was adapted to the microtiter plate format. […] Dilutions of the enzyme were prepared in 50 mM sodium phosphate buffer, 1 mM EDTA, pH 6.5. HPP was obtained from Aldrich. A stock solution of 60 mM HPP in ethanol is prepared and kept for maximally 4 hours on ice. The working solution (600 μM) of the substrate was prepared by diluting an aliquot of the stock solution with 50 mM sodium phosphate buffer, 1 mM EDTA, pH 6.5. […] Inhibitor and enzyme solutions were pipetted manually using an Eppendorf 12-channel pipette. Addition of substrate to start the reaction was performed with an Igel 96 pipetting station (OpalJena, Jena, Germany), which allows simultaneous addition of fluid to all 96 wells of the plates. Optical density (OD) was determined using a SPECTRAmax 250 reader (Molecular Devices). The reader was operated with the SoftmaxPro 2.6.1 software. Assay: Three wells of the microtiter plates were filled with buffer only, to allow for blanking. […] The last step was performed using the 96-channel pipetting device. The plate was then immediately (i.e. within a few seconds) transferred manually to the SPECTRAmax 250 reader and the optical density was determined (310 nm). From the data obtained, IC50 values were calculated using Excel® and XLfit® software.

Assay [2] concerns the target T2, MIF-CD74 Binding (biotin-labeled recombinant human MIF, recombinant human MIF receptor CD74 ectodomain) (Homo sapiens, UniProt P14174).
T2 sequence (P14174 2-115 limits assumed): T1 sequence (P14174 2-115 limits assumed)
In words: MIF-CD74 binding (capture) assay. Particulars: for CD74 % MaxInhib: number before @; for Capture % Max. Inhib.: Table 3; for % Bound: Table 19.
Method: The biologically more significant assay is a “capture” assay using immobilized, recombinant MIF receptor ectodomain and biotinylated recombinant MIF (Leng, L., et al. (2003), MIF signal transduction initiated by binding to CD74. J. Exp. Med. 197, 1467-1476). This allows measurement of the inhibition or enhancement of the binding of MIF to its receptor induced by an addend.
Coat 96 well plates with 60 μl/well of 26 ng/μl purified, recombinant human MIF receptor (CD74 ectodomain or CD74^73-232). Incubate at 4° C. overnight. Wash the plate 4 times with 250 μl/well TTBS and add 100 μl/well of superblock (Pierce, Ill.). Incubate at 4° C. overnight. Remove the superblock and add mixture of compound and biotin-labeled recombinant human MIF incubated at 4° C. overnight. (Each compound was pre-incubated at various concentrations with 2 ng/μl 0.2 μM biotin-MIF for 2 hours at room temperature in the dark). After washing the plate 4 times with 250 μl/well TTBS, 60 μl/well of Strepavidin-AP (R&D Systems) was added and incubated for 1 hr at room temperature in the dark. Wells were then washed as before and 60 μl/well of PNPP (Sigma) was added, allowing the color to develop in the dark at room temperature and then read at OD405 nm.

The mark [3] stands for this setting: Table 2, read-out: MIF-CD74 IC50.
[4] abbreviates: Table 19, data cell c5, read-out: CD74 IC50.

In general, IC50 refers to the midpoint of a concentration-inhibition curve. With `Cc1ccc2c(c1)oc(=O)n2Cc1ccccc1` [Compound 2, 3-benzyl-6-methyl-3H-benzooxazol-2-one], the IC50 in assay [1] (Table 1) was 3.4 µM. Further, in assay [2] (Table 4), the “concentration of CD74 % MaxInhib (number after @)” value (from here on “concentration of CD74 % MaxInhib”) stood at 1.87 µM and the “CD74 % MaxInhib” value was 25%.

Consider `COc1ccccc1Cn1c(=O)oc2ccc(F)cc21` [Compound 10], for which the “concentration of CD74 % MaxInhib” value in assay [2] (Table 4) came to 0.039 µM. For the molecule `N#Cc1nc2ccccc2n1Cc1ccccc1` [Compound 18, 1-Benzyl-1H-benzoimidazole-2-carbonitrile], in assay [2] (Table 5), the “concentration of CD74 % MaxInhib” value amounted to 0.078 µM. With `O=C(c1cc2ccccc2o1)c1cc2ccccc2o1` [Compound 20, bisbenzofuran-2-yl methanone], in assay [2] (Table 13), the “concentration of CD74 % MaxInhib” value was 0.058 µM. For `O=C(O)COc1ccc2occ(C(=O)c3ccccc3)c2c1` [Compound 23], the IC50 in assay [2] (setting [3]) is 1500 µM; in assay [2] (Table 5, read-out: CD74 IC50) it was 1500 µM; in assay [2] (Table 16, read-out: CD74 IC50) it was 1500 µM. With `c1ccc(COc2ccc3cc(-c4cc[nH]c4)[nH]c3c2)cc1` [Compound 24], the IC50 in assay [2] (setting [3]) was 5000 µM; in assay [2] (Table 5, read-out: CD74 IC50), 5000 µM; in assay [2] (Table 22, read-out: CD74 IC50) it was 5000 µM.

Turning to `COc1ccc(-n2sc3cc(F)ccc3c2=O)cc1` [Compound 27], in assay [1] (Table 3), the IC50 is 6.2 µM. Take `COc1cccc(-n2sc3cc(F)ccc3c2=O)c1` [Compound 28]: the IC50 in assay [1] (Table 3) stood at 25 µM; in assay [1] (Table 6, data cell c7) it was 25 µM. Turning to `O=c1c2ccc(F)cc2sn1-c1cccc(CO)c1` [Compound 29], the “Capture % Max. Inhib.” value in assay [2] came out at 8%. Moreover, the “CD74 % MaxInhib” value in assay [2] (Table 6, data cell c8) was determined as 8%. Consider `O=c1c2cc(F)ccc2sn1-c1ccc(Cl)cc1` [Compound 30], for which the “Capture % Max. Inhib.” value in assay [2] is 7%. Besides, in assay [2] (Table 6, data cell c8), the “CD74 % MaxInhib” value is 7%. Regarding `O=c1c2cc(C(F)(F)F)ccc2sn1-c1ccc(Cl)cc1` [Compound 35], the “Capture % Max. Inhib.” value in assay [2] amounted to 12%. Also, the “CD74 % MaxInhib” value in assay [2] (Table 6, data cell c8) is 12%. With `O=c1c2cc(Br)ccc2sn1-c1ccc(Cl)cc1` [Compound 39], the IC50 was found to be 7.9 µM in assay [1] (Table 3) and 7.9 µM in assay [1] (Table 6, data cell c7). Regarding `Oc1ccc(-c2cn(Cc3ccccc3)nn2)cc1` [MIF-002], in assay [2], the “% Bound” value came out at 96%. Further, the IC50 in assay [2] (setting [4]) was found to be 6000 µM. For the molecule `Oc1ccc(-n2cc(Cc3ccccc3)nn2)cc1` [MIF-003], the IC50 in assay [2] (Table 18, read-out: CD74 IC50) was 3.5 µM. `COc1ccc(Cn2cc(-c3ccc(O)cc3)nn2)cc1` [MIF-004]: the “% Bound” value in assay [2] is reported as 94%. Turning to `COc1cccc(Cn2cc(-c3ccc(O)cc3)nn2)c1` [MIF-005], the “% Bound” value in assay [2] turned out to be 67%. The IC50 in assay [2] (setting [4]) is 100 µM. Regarding `Oc1ccc(-c2cn(-c3cccnc3)nn2)cc1` [MIF-007], the IC50 in assay [1] (Table 20) worked out at 970 µM. Take `Oc1ccc(-c2cn(-c3cncc4ccccc34)nn2)cc1` [MIF-008]: the IC50 in assay [1] (Table 20) was found to be 32 µM. On to `Cc1cccc(Cn2cc(-c3ccc(O)cc3)nn2)c1` [MIF-031], for which the “% Bound” value in assay [2] is given as 100%. With `Cc1ccccc1Cn1cc(-c2ccc(O)cc2)nn1` [MIF-032], in assay [2], the “% Bound” value stood at 100%. For `Oc1ccc(-c2cn(Cc3ccccn3)nn2)cc1` [MIF-035], the IC50 in assay [2] (Table 20, read-out: CD74 IC50) was determined as 300 µM. For `O=C(O)c1cccc(Cn2cc(-c3ccc(O)cc3)nn2)c1` [MIF-037], in assay [2], the “% Bound” value was 70-90%. Turning to `Oc1ccc2c(c1)oc1ccccc12` [MIF-039], the IC50 in assay [2] (Table 17, read-out: CD74 IC50) came to 900 µM. Consider `Cc1ccc2oc(C(=O)c3cc4ccccc4o3)cc2c1` [MIF-078], for which the “concentration of HPP Max Inhib (number after @)” value in assay [1] (Table 13) was determined as 700 µM. Further, in assay [1] (Table 13, data cell c5, number before @), the “HPP Max Inhib” value turned out to be 47%. For `Cc1ccc2cc(C(=O)N3CCc4ccccc43)oc2c1` [MIF-082], in assay [2] (Table 14), the “concentration of CD74 % MaxInhib” value was found to be 0.24 µM and the “CD74 % MaxInhib” value is given as 19%.

In the case of `COc1cccc(Cc2cn(-c3ccc(O)cc3)nn2)c1OC` [MIF-084], the IC50 in assay [1] (Table 18) worked out at 530 µM. As to `O=Cc1cccc(-n2sc3cc(F)ccc3c2=O)c1` [MIF-135], in assay [1] (Table 6, data cell c7), the IC50 was 6 µM. On the same count and under the same terms, the value for `COCc1cccc(-n2sc3cc(F)ccc3c2=O)c1` [MIF-136] was 2.4 µM; that for `COc1cccc(-n2sc3ccc(F)cc3c2=O)c1` [MIF-144] was 2.75 µM.
